A word on the TD50: it is the dose at which the toxic effect under study appears in half of the subjects.

The values below come from PubChem BioAssay AID1745844 (Carcinogenic Potency Database (CPDB), 2022).

The subject of this series is rodent lifetime carcinogenesis bioassay, tumor incidence TD50. As to the kind of experiment: carcinogenic potency in animals, long-term in vivo studies, CPDB compilation (AID 1745844).

The source made the active and inactive calls. How the calls were made is not given here.

With `CCN(CC)C(=S)SSC(=S)N(CC)CC`, the TD50 reads like this: (mouse, strain B6AKF1, females, oral dosing, site: any site (literature study), lesion: several types, types named in the paper, dosed 76 weeks, study length 76 weeks) 1940 mg/kg/day; (mouse, strain B6AKF1, females, oral dosing, site: lung, lesion: adenoma, dosed 76 weeks, study length 76 weeks) 4140 mg/kg/day; (mouse, strain B6AKF1, males, oral dosing, site: any site (literature study), lesion: several types, types named in the paper, dosed 76 weeks, study length 76 weeks) 10.1 mg/kg/day; (mouse, strain B6AKF1, males, oral dosing, site: liver, lesion: hepatoma, dosed 76 weeks, study length 76 weeks) 197 mg/kg/day; (mouse, strain B6AKF1, males, oral dosing, site: subcutaneous tissue, lesion: fibrosarcoma, dosed 76 weeks, study length 76 weeks) 15.4 mg/kg/day; (mouse, strain B6C3F1, females, in feed, site: liver, lesion: hepatocellular adenoma + hepatocellular carcinoma + neoplastic nodule, dosed 108 weeks, study length 108 weeks) 120 mg/kg/day. Also, the TD50 worked out at 323 mg/kg/day (mouse, strain B6C3F1, females, in feed, site: lung, lesion: alveolar/bronchiolar adenoma + alveolar/bronchiolar carcinoma, dosed 108 weeks, study length 108 weeks); 64.5 mg/kg/day (mouse, strain B6C3F1, females, oral dosing, site: any site (literature study), lesion: several types, types named in the paper, dosed 76 weeks, study length 76 weeks); 283 mg/kg/day (mouse, strain B6C3F1, females, oral dosing, site: liver, lesion: hepatoma, dosed 76 weeks, study length 76 weeks); 283 mg/kg/day (mouse, strain B6C3F1, females, oral dosing, site: lung, lesion: adenoma, dosed 76 weeks, study length 76 weeks); 283 mg/kg/day (mouse, strain B6C3F1, females, oral dosing, site: lung, lesion: carcinoma, dosed 76 weeks, study length 76 weeks); 138 mg/kg/day (mouse, strain B6C3F1, females, oral dosing, site: lung, lesion: several types, types named in the paper, dosed 76 weeks, study length 76 weeks). For the same compound, the TD50 is 17 mg/kg/day (mouse, strain B6C3F1, males, oral dosing, site: any site (literature study), lesion: several types, types named in the paper, dosed 76 weeks, study length 76 weeks); 23.7 mg/kg/day (mouse, strain B6C3F1, males, oral dosing, site: liver, lesion: hepatoma, dosed 76 weeks, study length 76 weeks); 43.2 mg/kg/day (mouse, strain B6C3F1, males, oral dosing, site: lung, lesion: adenoma, dosed 76 weeks, study length 76 weeks); 193 mg/kg/day (rat, strain Charles River CD (Sprague-Dawley), females, in feed, site: any site (literature study), lesion: several types, types named in the paper, dosed 78 weeks, study length 78 weeks); 41100 mg/kg/day (inactive) (rat, strain Charles River CD (Sprague-Dawley), females, in feed, site: liver, lesion: neoplastic nodule, dosed 104 weeks, study length 104 weeks); 68.9 mg/kg/day (rat, strain Charles River CD (Sprague-Dawley), females, in feed, site: mammary gland, lesion: several types, types named in the paper, dosed 78 weeks, study length 78 weeks). Moreover, the TD50 was 366 mg/kg/day (rat, strain Charles River CD (Sprague-Dawley), males, in feed, site: liver, lesion: hepatocellular tumor, dosed 78 weeks, study length 78 weeks); 678 mg/kg/day (inactive) (rat, strain Charles River CD (Sprague-Dawley), males, in feed, site: liver, lesion: neoplastic nodule, dosed 104 weeks, study length 104 weeks); 1430 mg/kg/day (rat, strain Fischer 344, females, in feed, site: liver, lesion: hepatocellular adenoma + hepatocellular carcinoma + neoplastic nodule, dosed 107 weeks, study length 107 weeks). Also, the carcinogen call was “negative (inactive)” (mouse, strain B6C3F1, females, in feed, site: any site (literature study), lesion: several types, types named in the paper, dosed 108 weeks, study length 108 weeks); “negative (inactive)” (mouse, strain B6C3F1, males, in feed, site: any site (literature study), lesion: several types, types named in the paper, dosed 108 weeks, study length 108 weeks); “negative (inactive)” (rat, strain Charles River CD (Sprague-Dawley), females, in feed, site: any site (literature study), lesion: one or several types, types not named, dosed 104 weeks, study length 104 weeks); “negative (inactive)” (rat, strain Charles River CD (Sprague-Dawley), males, in feed, site: any site (literature study), lesion: one or several types, types not named, dosed 104 weeks, study length 104 weeks); “negative (inactive)” (rat, strain Charles River CD (Sprague-Dawley), males, in feed, site: liver, lesion: hepatocellular carcinoma, dosed 104 weeks, study length 104 weeks); “negative (inactive)” (rat, strain Fischer 344, females, in feed, site: any site (literature study), lesion: several types, types named in the paper, dosed 107 weeks, study length 107 weeks). Moreover, for the setting “rat, strain Fischer 344, males, in feed, site: any site (literature study), lesion: several types, types named in the paper, dosed 107 weeks, study length 107 weeks”, the carcinogen call is “negative (inactive)”.

With `CCS(=O)(=O)c1ccc(S(N)(=O)=O)c2ccccc12`, the TD50 (mouse, strain A x IF, females, in feed, site: lung, lesion: adenoma, dosed 100 weeks, study length 100 weeks) turned out to be 53.4 mg/kg/day; the TD50 (mouse, strain A x IF, females, in feed, site: urinary bladder, lesion: carcinoma, dosed 100 weeks, study length 100 weeks) is 34.2 mg/kg/day; the TD50 (mouse, strain IF x C57, females, in feed, site: urinary bladder, lesion: carcinoma, dosed 92 weeks, study length 92 weeks) was 15.3 mg/kg/day.

With `CC(O)CN(N=O)C(=O)NCCCl` (stereo not drawn), the TD50 is, setting by setting: (rat, strain Fischer 344, females, by gavage, site: all sites, lesion: mononuclear-cell leukemia, dosed 40 weeks, study length 95 weeks) 0.962 mg/kg/day; (rat, strain Fischer 344, females, by gavage, site: liver, lesion: hepatocellular carcinoma, dosed 40 weeks, study length 95 weeks) 8.81 mg/kg/day; (rat, strain Fischer 344, females, by gavage, site: liver, lesion: neoplastic nodule, dosed 40 weeks, study length 95 weeks) 0.885 mg/kg/day; (rat, strain Fischer 344, females, by gavage, site: liver, lesion: several types, types named in the paper, dosed 40 weeks, study length 95 weeks) 0.885 mg/kg/day; (rat, strain Fischer 344, males, by gavage, site: liver, lesion: hepatocellular carcinoma, dosed 35 weeks, study length 120 weeks) 2.71 mg/kg/day; (rat, strain Fischer 344, males, by gavage, site: liver, lesion: neoplastic nodule, dosed 35 weeks, study length 120 weeks) 1.17 mg/kg/day. In addition, the TD50 (rat, strain Fischer 344, males, by gavage, site: liver, lesion: several types, types named in the paper, dosed 35 weeks, study length 120 weeks) is 0.861 mg/kg/day and the TD50 (rat, strain Fischer 344, males, by gavage, site: lung, lesion: alveolar/bronchiolar tumor, dosed 35 weeks, study length 120 weeks) stood at 2.39 mg/kg/day.

For the compound `Nc1ccc(-c2ccc(N)c(N)c2)cc1N`, the TD50 (mouse, strain CD-1 HaM/ICR, females, in feed, site: any site (literature study), lesion: several types, types named in the paper, dosed 77 weeks, study length 98 weeks) was 599 mg/kg/day (inactive); the TD50 (mouse, strain CD-1 HaM/ICR, females, in feed, site: liver, lesion: several types, types named in the paper, dosed 77 weeks, study length 98 weeks) was 1690 mg/kg/day (inactive); the TD50 (mouse, strain CD-1 HaM/ICR, females, in feed, site: lung, lesion: several types, types named in the paper, dosed 77 weeks, study length 98 weeks) was 1030 mg/kg/day (inactive); the TD50 (mouse, strain CD-1 HaM/ICR, males, in feed, site: any site (literature study), lesion: several types, types named in the paper, dosed 77 weeks, study length 94 weeks) worked out at 224 mg/kg/day; the TD50 (mouse, strain CD-1 HaM/ICR, males, in feed, site: liver, lesion: several types, types named in the paper, dosed 77 weeks, study length 94 weeks) was 4170 mg/kg/day (inactive); the TD50 (mouse, strain CD-1 HaM/ICR, males, in feed, site: lung, lesion: several types, types named in the paper, dosed 77 weeks, study length 94 weeks) was 288 mg/kg/day. The TD50 runs as follows: (rat, strain Charles River CD (Sprague-Dawley), males, in feed, site: any site (literature study), lesion: several types, types named in the paper, dosed 77 weeks, study length 107 weeks) 200 mg/kg/day; (rat, strain Charles River CD (Sprague-Dawley), males, in feed, site: liver, lesion: hepatoma, dosed 77 weeks, study length 107 weeks) 395 mg/kg/day; (rat, strain Charles River CD (Sprague-Dawley), males, in feed, site: liver, lesion: several types, types named in the paper, dosed 77 weeks, study length 107 weeks) 259 mg/kg/day.
